Experimental data from patent US9062028B2, “Bicyclic nitrogen containing heteroaryl TGR5 receptor modulators” (Bristol-Myers Squibb Company, priority 2011, dated 2015).
Counter-ions that a name gives are not always drawn.

Legend:
recombinant human DGAT1 = molecular target: T1, recombinant human DGAT1 (Homo sapiens, UniProt O75907); assay: Diacylglycerol Acyltransferase (DGAT) Assay; format: biochemical; settings: membranes from Sf9 cells expressing recombinant human DGAT1; 2-monooleoylglycerol and [3H]-oleoyl-CoA as substrates; read-out: IC50 against the DGAT1 enzyme
T1 construct: made in house; host or cells: Sf9 insect cells (baculovirus), membrane preparation
T1 sequence (O75907 1-488): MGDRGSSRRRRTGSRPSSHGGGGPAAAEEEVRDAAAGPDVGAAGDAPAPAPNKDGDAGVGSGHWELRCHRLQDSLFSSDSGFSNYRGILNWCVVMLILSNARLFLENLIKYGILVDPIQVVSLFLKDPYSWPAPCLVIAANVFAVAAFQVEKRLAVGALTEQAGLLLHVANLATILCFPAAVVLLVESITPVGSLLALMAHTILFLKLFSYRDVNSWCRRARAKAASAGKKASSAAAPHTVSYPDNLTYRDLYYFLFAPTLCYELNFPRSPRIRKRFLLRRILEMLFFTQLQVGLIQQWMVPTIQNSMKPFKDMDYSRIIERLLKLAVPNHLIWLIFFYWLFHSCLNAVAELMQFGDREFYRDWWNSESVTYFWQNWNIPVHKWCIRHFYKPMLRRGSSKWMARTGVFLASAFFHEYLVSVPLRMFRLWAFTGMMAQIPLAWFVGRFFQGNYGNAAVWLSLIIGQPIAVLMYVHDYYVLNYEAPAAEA
Method: Diacylglycerol Acyltransferase (DGAT) Assay
DGAT1 enzyme was assayed using membranes isolated from Sf9 cells expressing the recombinant human DGAT1 cDNA with 2-monooleoylglycerol and [^3H]-oleoyl-CoA as substrates as described by Seethala et al. (Anal Biochem., 383(2):144-150 (Dec. 15, 2008)). Briefly, the assays were conducted in 384-well plates in a total volume of 30 μl at 25° C. In each assay, 200 ng of recombinant human DGAT1 membrane was incubated with 10 μM of 2-monooleoylglycerol and 15 μM of [^3H]-oleoyl-CoA in 100 mM potassium phosphate (pH 7.4) for 20 min with various concentrations of compounds delivered in DMSO. The assay was terminated by the addition of 20 μl of Stopping Solution (7.5 mg/ml Yittrium Oxide Polylysine beads, 3.3 mg/ml Fraction V BSA and 200 μM Mercuric chloride in 50 mM HEPES, pH 7.4). The signal was measured 1 h after quenching the reaction using LEADSEEKER^SM for 5 minutes. To calculate the degree of inhibition, the zero level of enzyme activity (blank) was defined by the above assay procedure using membrane form Sf9 cell uninfected with baculovirus (Naive) and the 100% level of DGAT1 enzyme activity was defined by human […] DGAT1 assay with the vehicle DMSO. The IC50s of inhibitors were determined by logistic 4 parameter equation in XL-fit.

recombinant human TGR5 = molecular target: T2, recombinant human TGR5 (Homo sapiens, UniProt Q8TDU6); assay: cAMP assay (cAMP accumulation, HTRF) in CHOK1 cells stably expressing TGR5; format: cell-based; settings: CHOK1 cells stably expressing human TGR5, 30 minutes at RT, 1% DMSO
T2 construct: expressed in transfected cells
T2 sequence (Q8TDU6 1-330): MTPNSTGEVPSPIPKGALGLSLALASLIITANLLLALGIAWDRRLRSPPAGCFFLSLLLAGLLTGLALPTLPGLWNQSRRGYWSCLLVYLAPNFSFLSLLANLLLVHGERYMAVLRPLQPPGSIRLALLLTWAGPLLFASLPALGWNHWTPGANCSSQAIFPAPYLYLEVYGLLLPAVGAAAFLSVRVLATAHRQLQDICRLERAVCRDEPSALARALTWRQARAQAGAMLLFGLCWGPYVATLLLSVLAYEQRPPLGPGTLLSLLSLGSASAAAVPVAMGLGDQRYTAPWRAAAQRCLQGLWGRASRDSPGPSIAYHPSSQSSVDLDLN
Method in brief: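 Agonist-induced cAMP accumulation: stable TGR5-CHOK1 cells treated 30 min at RT with compound (1% DMSO) plus 0.1 mM IBMX. HTRF ratio converted to nM cAMP via standard curve; EC50 from four-parameter logistic fit, midpoint between baseline and maximum.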

Structure (SMILES)	IC50 (recombinant human DGAT1) [µM]	EC50 (recombinant human TGR5) [µM]
Cc1cccc(OCCCC(=O)N2CCCc3c(-c4cnn(Cc5cccc(OCCS(=O)(=O)O)c5)c4)cccc32)c1C [Example 215, 2-(3-((4-(1-(4-(2,3-Dimethylphenoxy)butanoyl)-1,2,3,4-tetrahydroquinolin-5-yl)-1H-pyrazol-1-yl)methyl)phenoxy)ethanesulfonic acid]	> 10	
Cc1cccc(OCCCC(=O)N2CCCc3c(-c4cnn(Cc5cccc(NC(=O)NCS(=O)(=O)O)c5)c4)cccc32)c1C [Example 86, (3-(3-((4-(1-(4-(2,3-Dimethylphenoxy)butanoyl)-1,2,3,4-tetrahydroquinolin-5-yl)-1H-pyrazol-1-yl)methyl)phenyl)ureido)methanesulfonic acid]	> 10	
Cc1cccc(OCCCC(=O)N2CCOc3c(-c4cnn(Cc5cccc(NC(=O)NCCS(=O)(=O)O)c5)c4)cccc32)c1C [Example 177N, 2-(3-(3-((4-(4-(4-(2,3-Dimethylphenoxy)butanoyl)-3,4-dihydro-2H-benzo[b][1,4]oxazin-8-yl)-1H-pyrazol-1-yl)methyl)phenyl)ureido) ethanesulfonic acid]	> 10	
Cc1cccc(OCCCC(=O)N2CCCc3c(-c4cccc(COC(=O)NC(CP(=O)(O)O)C(=O)O)c4)cccc32)c1C (stereo not shown) [Example 319, 2-((3-(1-(4-(2,3-Dimethylphenoxy)butanoyl)-1,2,3,4-tetrahydroquinolin-5-yl)benzyloxy)carbonylamino)-3-phosphonopropanoic acid]		3.82
Cc1cccc(OCCCC(=O)N2CC3CC3c3c(-c4cnn(Cc5c(F)cc(C(=O)NCCS(=O)(=O)O)cc5Cl)c4)cccc32)c1C (stereo not shown) [Example 69C, 2-(3-Chloro-4-((4-(3-(4-(2,3-dimethylphenoxy)butanoyl)-1a,2,3,7b-tetrahydro-1H-cyclopropa[c]quinolin-7-yl)-1H-pyrazol-1-yl)methyl)-5-fluorobenzamido)ethanesulfonic acid]		0.058
Cc1c(Cl)cccc1OCCOC(=O)N1C[C@@H]2C[C@@H]2c2c(-c3cnn(Cc4cc(C(=O)N5C[C@@H](O)C[C@H]5C(=O)O)ccc4Cl)c3)cccc21 [Example 693, (2S,4S)-1-(4-Chloro-3-((4-((1aR,7bS)-3-((2-(3-chloro-2-methylphenoxy)ethoxy)carbonyl)-1a,2,3,7b-tetrahydro-1H-cyclopropa[c]quinolin-7-yl)-1H-pyrazol-1-yl)methyl)benzoyl)-4-hydroxypyrrolidine-2-carboxylic acid]		0.188
Cc1cccc(OCCCC(=O)N2CCCc3c(-c4cn(Cc5cccc(C(=O)O)c5)nc4C)cccc32)c1C [Example 32G, 3-((4-(1-(4-(2,3-Dimethylphenoxy)butanoyl)-1,2,3,4-tetrahydroquinolin-5-yl)-3-methyl-1H-pyrazol-1-yl)methyl)benzoic acid]		0.636
Cc1cccc(OCCOC(=O)N2CCOc3c(-c4cnn(Cc5cccc(C(=O)O)c5)c4)cccc32)c1C [Example 29, 3-((4-(4-((2-(2,3-Dimethylphenoxy)ethoxy)carbonyl)-3,4-dihydro-2H-benzo[b][1,4]oxazin-8-yl)-1H-pyrazol-1-yl)methyl)benzoic acid]		0.596
Cc1cccc(OCCCC(=O)N2C[C@@H]3C[C@@H]3c3c(-c4cnn(Cc5cccc(C(=O)N(CC(=O)O)CC(=O)O)c5)c4)cccc32)c1C [Example 882, 2,2′-(3-((4-((1aR,7bS)-3-(4-(2,3-Dimethylphenoxy)butanoyl)-1a,2,3,7b-tetrahydro-1H-cyclopropa[c]quinolin-7-yl)-1H-pyrazol-1-yl)methyl)benzoylazanediyl) diacetic acid]		1.34
Cc1c(Cl)cccc1OCCCC(=O)N1CCCOc2c(-c3cnn(Cc4c(F)cc(C(=O)N[C@@H](CCCCN)C(=O)O)cc4Cl)c3)cccc21 [Example 792, (S)-6-Amino-2-(3-chloro-4-((4-(5-(4-(3-chloro-2-methylphenoxy)butanoyl)-2,3,4,5-tetrahydrobenzo[b][1,4]oxazepin-9-yl)-1H-pyrazol-1-yl)methyl)-5-fluorobenzamido)hexanoic acid]		0.185
Cc1cccc(OCCCC(=O)N2CCCc3c(-c4cnn(Cc5c(F)cc(C(=O)NCCC[C@H](NC(=N)N)C(=O)O)cc5Cl)c4)cccc32)c1C [Example 171, (S)-5-(3-Chloro-4-((4-(1-(4-(2,3-dimethylphenoxy)butanoyl)-1,2,3,4-tetrahydroquinolin-5-yl)-1H-pyrazol-1-yl)methyl)-5-fluorobenzamido)-2-guanidinopentanoic acid, TFA salt]		0.056
Cc1c(Cl)cccc1OCCOC(=O)N1C[C@@H]2C[C@@H]2c2c(-c3cnn(Cc4cc(C(=O)NC5(CC(=O)O)COC5)ccc4Cl)c3)cccc21 [Example 698, 2-(3-(4-Chloro-3-((4-((1aR,7bS)-3-((2-(3-chloro-2-methylphenoxy)ethoxy)carbonyl)-1a,2,3,7b-tetrahydro-1H-cyclopropa[c]quinolin-7-yl)-1H-pyrazol-1-yl)methyl)benzamido)oxetan-3-yl)acetic acid]		0.028
Cc1c(Cl)cccc1OCCOC(=O)N1CC(O)COc2c(-c3cnn(Cc4c(F)cc(C(=O)O)cc4Cl)c3)cccc21 (stereo not shown) [Example 334, 3-Chloro-4-((4-(5-((2-(3-chloro-2-methylphenoxy)ethoxy)carbonyl)-3-hydroxy-2,3,4,5-tetrahydrobenzo[b][1,4]oxazepin-9-yl)-1H-pyrazol-1-yl)methyl)-5-fluorobenzoic acid]		1.27
Cc1cccc(OCCCC(=O)N2CCCc3c(-c4cccc(COC(=O)N[C@H](CO)C(=O)O)c4)cccc32)c1C [Example 282, (R)-2-((3-(1-(4-(2,3-Dimethylphenoxy)butanoyl)-1,2,3,4-tetrahydroquinolin-5-yl)benzyloxy)carbonylamino)-3-hydroxypropanoic acid]		0.664
Cc1c(Cl)cccc1OCCOC(=O)N1C[C@@H]2C[C@@H]2c2c(-c3cnn(Cc4cc(C(=O)NCS(=O)(=O)O)ccc4Cl)c3)cccc21 [Example 662, (4-Chloro-3-((4-((1aR,7bS)-3-((2-(3-chloro-2-methylphenoxy)ethoxy)carbonyl)-1a,2,3,7b-tetrahydro-1H-cyclopropa[c]quinolin-7-yl)-1H-pyrazol-1-yl)methyl)benzamido) methanesulfonic acid]		0.036
Cc1cccc(OCCOC(=O)N2CCOc3c(-c4cnn(Cc5cccc(C(=O)NCCS(=O)(=O)O)c5)c4)cccc32)c1C [Example 182, 2-(3-((4-(4-((2-(2,3-Dimethylphenoxy)ethoxy)carbonyl)-3,4-dihydro-2H-benzo[b] [1,4]oxazin-8-yl)-1H-pyrazol-1-yl)methyl)benzamido) ethanesulfonic acid]		0.589
Cc1c(Cl)cccc1OCCCC(=O)N1CCCc2c(-c3cnn(CC(=O)O)c3)cccc21 [Example 197, 2-(4-(1-(4-(3-Chloro-2-methylphenoxy)butanoyl)-1,2,3,4-tetrahydroquinolin-5-yl)-1H-pyrazol-1-yl)acetic acid]		2.15
Cc1c(Cl)cccc1OCCCC(=O)N1CCCOc2c(-c3cnn(Cc4c(F)cc(C(=O)NCC[N+](C)(C)C)cc4F)c3)cccc21 [Example 724, 2-(4-((4-(5-(4-(3-Chloro-2-methylphenoxy)butanoyl)-2,3,4,5-tetrahydrobenzo[b][1,4]oxazepin-9-yl)-1H-pyrazol-1-yl)methyl)-3,5-difluorobenzamido)-N,N,N-trimethylethanaminium, TFA salt]		1.3
Cc1c(Cl)cccc1OCCOC(=O)N1CCSc2c(-c3cnn(Cc4cccc(OCC(=O)O)c4)c3)cccc21 [Example 375, 2-(3-((4-(4-((2-(3-Chloro-2-methylphenoxy)ethoxy)carbonyl)-3,4-dihydro-2H-benzo[b][1,4]thiazin-8-yl)-1H-pyrazol-1-yl)methyl)phenoxy)acetic acid]		0.188
